Laboratory results taken from patent publication US9757455B2, “Oral therapeutic compound delivery system” (Johnson & Johnson Consumer Inc., priority 2005, dated 2017).
Converted amounts (≈) assume the structure as drawn. Counter-ions that a name gives are not always drawn. Like-named read-outs stand apart in the source and are kept apart here. Marks after values point to notes of the source that are not given here.

Tests used:
[1] = Dissolution, USP dissolution apparatus 2, 900 mL 0.0033 N hydrochloric acid, 30 rpm, 37° C.; format: physicochemical; settings: basic and amphoteric drugs in formulations according to the invention (Table 32)
Description: (§1) Testing was conducted in a dissolution medium containing 900 mL 0.0033 N hydrochloric acid (HCl) at 37° C. which discriminates better between fast dissolving formulations than more acidic dissolution media where the effect of high acid concentration tends to mask formulation effects on dissolution. 900 mL of this medium contains the absolute amount of acid estimated to be present in the gastric contents in vivo, namely 3 millimoles.
(§2) Testing at was conducted at a stirring speed of 30 rpm and also at 0 rpm which provides more discrimination between formulations. To achieve maximum dissolution, the stirring speed was increased to 250 rpm for 10 minutes after 20 minutes for measurements at 30 rpm, and after 60 minutes for measurements at 0 rpm.
(§3) Unless otherwise stated, drug concentrations were measured using a Varian Cary 50 UV-Vis Spectrophotometer set at an appropriate wavelength using flow through cells for automatic continuous sampling. For each drug, the optimal wavelength was selected after running UV scans in the dissolution medium.
A suitable C18 column and guard column were used. Results were processed using Waters Empower software.

[2] = Dissolution, USP dissolution apparatus 2, 900 mL 0.0033 N hydrochloric acid, 0 rpm, 37° C.; format: physicochemical; settings: for % dissolved in 900 mL 0.0033 N HCl: basic and amphoteric drugs in formulations according to the invention (Table 32), 0 rpm
Description: as §1
Dissolution results without stirring may be of in vivo significance in conditions where there is gut stasis or reduced gastric activity.
as §2, §3

[3] = Solubility in water
[4] = Effect of different alkaline agents on paracetamol absorption in vivo (5 subject crossover studies, plasma paracetamol); settings: human, oral, 1000 mg, two tablets each 500 mg paracetamol, fasted, read-out: Median AUC20 (converted)
Description: In a series of multiple 5 subject crossover studies, the effect of a range of different formulations containing different alkali agents on in vivo absorption were investigated. Subjects were fasted overnight and dosed with two tablets each containing 500 mg paracetamol. Plasma levels of paracetamol were monitored for 8 hours, with 10 samples taken in the first hour.

[5] = physchem
[6] = 30 minutes, 30 rpm (increased to 250 rpm after 20 minutes)
[7] = dose (mg) of each drug as in Table 78

SMILES: CCN(CC)CCNC(=O)c1cc(Cl)c(N)cc1OC [Metoclopramide hydrochloride]
- % dissolved in 900 mL 0.0033 N HCl ([1]; 180 sec, 30 rpm): 94%
- % dissolved in 900 mL 0.0033 N HCl ([1]; 300 sec, 30 rpm): 95%
- % dissolved in 900 mL 0.0033 N HCl ([1]; 15 minutes, 30 rpm): 97%
- % dissolved in 900 mL 0.0033 N HCl [1, 6]: 100%
- % dissolved in 900 mL 0.0033 N HCl ([2]; 180 sec): 26%
- % dissolved in 900 mL 0.0033 N HCl ([2]; 300 sec): 69%
- % dissolved in 900 mL 0.0033 N HCl ([2]; 15 minutes): 86%
- % dissolved in 900 mL 0.0033 N HCl ([2]; 30 minutes): 91%
- % drug dissolved in 900 mL 0.0033 N HCl at 0 rpm ([2]; pH modulating agent: Bicarb + acid, 300 sec (Table 33)): 69%
- % drug dissolved in 900 mL 0.0033 N HCl at 0 rpm ([2]; pH modulating agent: Bicarb + acid, 15 min (Table 33)): 86%
- % drug dissolved in 900 mL 0.0033 N HCl at 0 rpm ([2]; pH modulating agent: Bicarb + acid, 30 min (Table 33)): 91%
- % drug dissolved in 900 mL 0.0033 N HCl at 0 rpm ([2]; pH modulating agent: Bicarbonate, 300 sec (Table 33)): 5%
- % drug dissolved in 900 mL 0.0033 N HCl at 0 rpm ([2]; pH modulating agent: Bicarbonate, 15 min (Table 33)): 28%
- % drug dissolved in 900 mL 0.0033 N HCl at 0 rpm ([2]; pH modulating agent: Bicarbonate, 30 min (Table 33)): 46%
- Volume (mL) of water to dissolve dose [3, 7]: 50 mL

SMILES: Cc1nccn1CC1CCc2c(c3ccccc3n2C)C1=O (stereo not drawn) [Ondansetron hydrochloride]
- % dissolved in 900 mL 0.0033 N HCl ([1]; 180 sec, 30 rpm): 88%
- % dissolved in 900 mL 0.0033 N HCl ([1]; 300 sec, 30 rpm): 96%
- % dissolved in 900 mL 0.0033 N HCl ([1]; 15 minutes, 30 rpm): 100%
- % dissolved in 900 mL 0.0033 N HCl [1, 6]: 100%
- % dissolved in 900 mL 0.0033 N HCl ([2]; 180 sec): 50%
- % dissolved in 900 mL 0.0033 N HCl ([2]; 300 sec): 65%
- % dissolved in 900 mL 0.0033 N HCl ([2]; 15 minutes): 79%
- % dissolved in 900 mL 0.0033 N HCl ([2]; 30 minutes): 85%
- Solubility in water [3]: 2.42 mg/mL
- Volume (mL) of water to dissolve dose [3, 7]: 4 mL

SMILES: CC(=O)Nc1ccc(O)cc1 [Paracetamol]
- AUC ([4]; Magnesium carbonate, dose 150 mg): 1140 ng·h/mL
- AUC ([4]; Magnesium carbonate, dose 300 mg): 2010 ng·h/mL
- AUC ([4]; Sodium bicarbonate, dose 200 mg): 3810 ng·h/mL
- AUC ([4]; Sodium bicarbonate, dose 400 mg): 4760 ng·h/mL
- AUC ([4]; Sodium bicarbonate, dose 800 mg): 4400 ng·h/mL
- AUC ([4]; Sodium bicarbonate, dose 1200 mg): 2680 ng·h/mL
- AUC ([4]; alkaline agent None, dose 0 mg): 1590 ng·h/mL
- Effect of ↑ pH on solubility [3]: ⇄
- Volume of water (mL) to dissolve dose ([3]; dose per tablet as in label): 36 mL
- water needed for total dissolution of the dose ([3]; doses of Example 33 (tramadol hydrochloride 37.5 mg, paracetamol 325 mg)): around 27 mL
- solubility ([3]; water): ~14 mg/mL (≈ 92.6 mM)

SMILES: C[C@]12C=CC(=O)C=C1CC[C@@H]1[C@@H]2[C@@H](O)C[C@@]2(C)[C@H]1CC[C@]2(O)C(=O)CO [Prednisolone]
- Volume of water (mL) to dissolve dose ([3]; dose per tablet as in label, listed as Prednisolone 5 mg): 23 mL
- Volume of water (mL) to dissolve dose ([3]; dose per tablet as in label, listed as Prednisolone 25 mg): 114 mL

SMILES: CN(C)CCc1c[nH]c2ccc(Cn3cncn3)cc12 [Rizatriptan benzoate]
- % dissolved in 900 mL 0.0033 N HCl ([1]; 180 sec, 30 rpm): 96%
- % dissolved in 900 mL 0.0033 N HCl ([1]; 300 sec, 30 rpm): 96%
- % dissolved in 900 mL 0.0033 N HCl ([1]; 15 minutes, 30 rpm): 96%
- % dissolved in 900 mL 0.0033 N HCl [1, 6]: 97%
- % dissolved in 900 mL 0.0033 N HCl ([2]; 180 sec): 94%
- % dissolved in 900 mL 0.0033 N HCl ([2]; 15 minutes): 100%
- % dissolved in 900 mL 0.0033 N HCl ([2]; 30 minutes): 100%
- Volume (mL) of water to dissolve dose [3, 7]: 0.3 mL
- Solubility in water ([3]; solubility of the base not salt): 42* mg/mL

SMILES: CN1C(=O)C(O)N=C(c2ccccc2)c2cc(Cl)ccc21 (stereo not drawn) [Temazepam]
- Volume of water (mL) to dissolve dose [3]: 83 mL

SMILES: COc1cccc(C2(O)CCCCC2CN(C)C)c1 (stereo not drawn) [Tramadol hydrochloride]
- % dissolved in 900 mL 0.0033 N HCl ([1]; 180 sec, 30 rpm): 100%
- % dissolved in 900 mL 0.0033 N HCl ([1]; 300 sec, 30 rpm): 100%
- % dissolved in 900 mL 0.0033 N HCl ([1]; 15 minutes, 30 rpm): 100%
- % dissolved in 900 mL 0.0033 N HCl [1, 6]: 100%
- % dissolved in 900 mL 0.0033 N HCl ([2]; 180 sec): 87%
- % dissolved in 900 mL 0.0033 N HCl ([2]; 300 sec): 95%
- % dissolved in 900 mL 0.0033 N HCl ([2]; 15 minutes): 99%
- % dissolved in 900 mL 0.0033 N HCl ([2]; 30 minutes): 100%
- solubility [5]: ~30 mg/mL
- solubility ([5]; water): ~30 mg/mL
- Volume (mL) of water to dissolve dose [3]: 1.3 mL
- water needed for total dissolution of the dose [3]: around 1 mL

SMILES: CN(C)CCc1c[nH]c2ccc(C[C@H]3COC(=O)N3)cc12 [Zolmitriptan]
- % dissolved in 900 mL 0.0033 N HCl ([1]; 180 sec, 30 rpm): 73%
- % dissolved in 900 mL 0.0033 N HCl ([1]; 300 sec, 30 rpm): 76%
- % dissolved in 900 mL 0.0033 N HCl ([1]; 15 minutes, 30 rpm): 86%
- % dissolved in 900 mL 0.0033 N HCl [1, 6]: 98%
- % dissolved in 900 mL 0.0033 N HCl ([2]; 180 sec): 66%
- % dissolved in 900 mL 0.0033 N HCl ([2]; 300 sec): 77%
- % dissolved in 900 mL 0.0033 N HCl ([2]; 15 minutes): 88%
- % dissolved in 900 mL 0.0033 N HCl ([2]; 30 minutes): 96%
- Volume (mL) of water to dissolve dose [3, 7]: 2 mL

SMILES: Cc1ccc(-c2nc3ccc(C)cn3c2CC(=O)N(C)C)cc1 [Zolpidem tartrate]
- % dissolved in 900 mL 0.0033 N HCl ([1]; 180 sec, 30 rpm): 96%
- % dissolved in 900 mL 0.0033 N HCl ([1]; 300 sec, 30 rpm): 96%
- % dissolved in 900 mL 0.0033 N HCl ([1]; 15 minutes, 30 rpm): 97%
- % dissolved in 900 mL 0.0033 N HCl [1, 6]: 98%
- % dissolved in 900 mL 0.0033 N HCl ([2]; 180 sec): 77%
- % dissolved in 900 mL 0.0033 N HCl ([2]; 300 sec): 91%
- % dissolved in 900 mL 0.0033 N HCl ([2]; 15 minutes): 94%
- % dissolved in 900 mL 0.0033 N HCl ([2]; 30 minutes): 96%
- Volume (mL) of water to dissolve dose [3, 7]: 0.4 mL
